Laboratory results taken from US9018219B2, “Fused aminodihydropyrimidine derivative” (Shionogi & Co., Ltd., priority 2010, dated 2015).
pIC50: −log10 of the molar value.

Columns and labels:
CYP3A4 = CYP3A4 (Homo sapiens, UniProt P08684); experiment: CYP3A4 fluorescent MBI test; format: in vitro ADME; set-up: host or cells: Escherichia coli; conditions: 7-BFC substrate, pre-reaction 0 or 30 minutes, CYP3A4 expressed in Escherichia coli
Description: The CYP3A4 fluorescent MBI test is a test of investigating enhancement of CYP3A4 inhibition of the compound of the present invention by a metabolism reaction. 7-benzyloxytrifluoromethylcoumarin (7-BFC) is debenzylated by the CYP3A4 enzyme (enzyme expressed in Escherichia coli) and a metabolite, 7-hydroxytrifluoromethylcoumarin (7-HFC) which emits fluorescent light is produced. The test is performed using 7-HFC production reaction as an index.
The reaction conditions are as follows: substrate, […] 7-BFC; pre-reaction time, 0 or 30 minutes; reaction time, 15 minutes; reaction temperature, 25° C. […]
An enzyme in a K-Pi buffer (pH 7.4) and the compound of the present invention solution as a pre-reaction solution were added to a 96-well plate at the composition of the pre-reaction, a part of it was transferred to another 96-well plate so that it was 1/10 diluted by a substrate in a K-Pi buffer, NADPH as a co-factor was added to initiate a reaction as an index (without preincubation) and, after a predetermined time of a reaction, acetonitrile/0.5 mol/L Tris (trishydroxyaminomethane)=4/1 was added to stop the reaction. […] For the plate on which each index reaction had been performed, a fluorescent value of 7-HFC which is a metabolite was measured with a fluorescent plate reader. […]

Recombinant human BACE-1 = target: T1, Recombinant human BACE-1 (Homo sapiens, UniProt P56817); experiment: Assay of BACE1 inhibitory activity; format: biochemical; conditions: Recombinant human BACE1 7.4 nmol/L, substrate peptide 18 nmol/L, pH 5.0, 30° C. for 3 hours; read-out: IC50 (50% inhibitory concentration against the enzymatic activity)
T1 construct: purchased R&D Systems
Description: 48.5 μL of substrate peptide solution (Biotin-XSEVNLDAEFRHDSGC-Eu: X=ε-amino-n-capronic acid, Eu=Europium cryptate) was added to each well of 96-hole half-area plate (a black plate: Costar), and after addition of 0.5 μl of the compound of the present invention (N,N′-dimethylformamide solution) and 1 μl of Recombinant human BACE-1 (R&D Systems), the reaction mixture was incubated at 30° C. for 3 hours. The substrate peptide was synthesized by reacting Cryptate TBPCOOH mono SMP (CIS bio international) with Biotin-XSEVNLDAEFRHDSGC (Peptide Institute, Inc.). The final concentrations of the substrate peptide and Recombinant human BACE1 were adjusted to 18 nmol/L and 7.4 nmol/L, respectively, and the reaction was performed in sodium acetate buffer (50 mmol/L sodium acetate, pH 5.0, 0.008% Triton X-100). After the incubation for reaction, 50 μl of 8.0 μg/ml Streptavidin-XL665 (CIS bio international) dissolved in phosphate buffer (150 mmol/L K2HPO4—KH2PO4, pH 7.0, 0.008% Triton X-100, 0.8 mol/L KF) was added to each well and left stand at 30° C. for 1 hour. After then, fluorescence intensity was measured (excitation wavelength: 320 nm, measuring wavelength: 620 nm and 665 nm) using Wallac 1420 multilabel counter (Perkin Elmer life sciences). Enzymatic activity was determined from counting ratio of each wavelength (10,000×Count 665/Count 620) and 50% inhibitory concentration against the enzymatic activity (IC50) was calculated.

[1] = test system: Neuroblastoma SH-SY5Y cells (SH/APPwt) with human wild-type β-APP excessively expressed; experiment: Measurement of β-amyloid (Aβ) production inhibiting effect in cell; format: cell-based; conditions: 24 hours incubation, Amyloid β 1-40 HTRF in culture supernatant, read-out: IC50 (amount needed to inhibit Aβ production by 50%)
Description: Neuroblastoma SH-SY5Y cells (SH/APPwt) with human wild-type β-APP excessively expressed therein were prepared at 8×10^5 cells/mL, and 150 μl portions thereof were inoculated into each well of a 96-well culture plate (Falcon). The cells were cultured for 2 hours at 37° C. in a 5% gaseous carbon dioxide incubator. Then, a solution which have been preliminarily prepared by adding and suspending the compound of the present invention (DMSO (dimethyl sulfoxide) solution) so as to be 2 μl/50 μl medium was added to the cell sap. Namely, the final DMSO concentration was 1%, and the amount of the cell culture was 200 μl. After the incubation was performed for 24 hours from the addition of the test compound, 100 μl of the culture supernatant was collected from each fraction. The amount of the Aβ in each fraction was measured.
The Aβ amount was measured as follows. 10 μl of a homogeneous time resolved fluorescence (HTRF) measurement reagent (Amyloid β 1-40 peptide; IBA Molecular Holding, S.A.) and 10 μl of the culture supernatant were put into a 384-well half area microplate (black microplate, Costar) and mixed with each other, and then left standing overnight at 4° C. while the light was shielded. Then, the fluorescence intensity (excitation wavelength: 337 nm, measurement wavelength: 620 nm and 665 nm) was measured with Wallac 1420 multilabel counter (Perkin Elmer life sciences). The Aβ amount was determined from the count rate at each measurement wavelength (10000×Count 665/Count 620), and the amount needed to inhibit Aβ production by 50% (IC50) was calculated from at least six different dosages.

[2] = Solubility test (turbidity, Test Example 7-1); format: physicochemical; conditions: pH 6.8, aqueous buffer, kinetic from dmso stock; JP-II medium, 2% DMSO, turbidity after 4 hours; read-out: solubility assessed by 3 stages
Description: A 2-fold dilution series (12 points) of a 10 mM solution of a compound of the present invention in DMSO was added to a medium (JP-I, JP-II) (2%), and solubility was assessed by 3 stages (High; >40 μM, Medium; 3-40 Low; <3 μM) from a turbidity after 4 hours.

[3] = Brain distribution studies; format: in vivo; conditions: brain/plasma; rat, intravenous 0.5 mg/mL/kg, 30 minutes later; read-out: brain Kp value (area ratio brain/plasma)
Description: Compound of the present invention is intravenously administered to a rat at 0.5 mg/mL/kg dosage.
The brain is enucleated and 20-25% of homogenate thereof is prepared with distilled water.
The obtained blood is used as plasma after centrifuging. To the brain sample is added the control plasma at 1:1. To the plasma samples is added the control brains at 1:1. Each sample is measured using LC/MS/MS. The obtained area ratio (a brain/plasma) is used for the brain Kp value.

T1 sequence (P56817 46-501): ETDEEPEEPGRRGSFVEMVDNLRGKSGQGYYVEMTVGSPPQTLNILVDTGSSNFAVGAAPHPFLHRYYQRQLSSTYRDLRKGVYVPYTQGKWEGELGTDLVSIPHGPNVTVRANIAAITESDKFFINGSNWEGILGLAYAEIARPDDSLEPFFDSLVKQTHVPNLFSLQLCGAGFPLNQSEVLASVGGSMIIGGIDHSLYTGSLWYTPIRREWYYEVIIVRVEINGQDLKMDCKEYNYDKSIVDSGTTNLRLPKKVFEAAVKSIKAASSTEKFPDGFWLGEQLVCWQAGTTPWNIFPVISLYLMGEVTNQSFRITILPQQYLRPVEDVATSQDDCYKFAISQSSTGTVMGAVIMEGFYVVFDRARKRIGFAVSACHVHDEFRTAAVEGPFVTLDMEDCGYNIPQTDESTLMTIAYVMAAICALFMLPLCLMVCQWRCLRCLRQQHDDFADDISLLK
CYP3A4, sequence (P08684 whole entry): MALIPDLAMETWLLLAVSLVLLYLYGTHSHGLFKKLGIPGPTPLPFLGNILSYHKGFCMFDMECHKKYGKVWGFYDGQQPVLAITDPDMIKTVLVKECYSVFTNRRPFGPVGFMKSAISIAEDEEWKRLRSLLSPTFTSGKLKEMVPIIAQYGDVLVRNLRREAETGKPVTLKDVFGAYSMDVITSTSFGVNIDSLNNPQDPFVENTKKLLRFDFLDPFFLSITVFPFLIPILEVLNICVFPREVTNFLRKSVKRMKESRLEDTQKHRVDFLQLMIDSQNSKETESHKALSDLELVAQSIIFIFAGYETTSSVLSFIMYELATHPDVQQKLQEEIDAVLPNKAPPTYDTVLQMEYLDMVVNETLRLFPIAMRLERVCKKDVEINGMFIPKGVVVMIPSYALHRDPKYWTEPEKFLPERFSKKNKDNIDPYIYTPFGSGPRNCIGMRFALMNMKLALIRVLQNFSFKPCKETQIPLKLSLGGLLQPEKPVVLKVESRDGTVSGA

SMILES	CYP3A4 fluorescent MBI: difference between IC50 values without and with preincubation (CYP3A4)	pIC50 (Recombinant human BACE-1)	pIC50 [1]	solubility at 4 h [2] [µM]	Kp at 0.5 h [3]
C[C@@]1(c2cc(NC(=O)c3ccc(C#N)cn3)ccc2F)Cc2nccn2C(N)=N1 [Compound I-1]	(−) (when the difference is 3 μM or less, this was defined as (−))	≥ 6.00	≥ 6.00	> 40	–
C[C@@]1(c2cc(NC(=O)c3ccc(C#N)cn3)ccc2F)Cc2ccnn2C(N)=N1 [Compound I-3]	–	7.44	8.52	–	–
CC#Cc1cncc(-c2csc([C@]3(C)Cc4nccn4C(N)=N3)c2)c1 [Compound I-4]	–	≥ 6.00	≥ 6.00	–	–
CC1(c2cc(NC(=O)c3ccc(C#N)cn3)ccc2F)Cc2cncn2C(N)=N1 (stereo not shown) [Compound I-6]	–	≥ 6.00	≥ 6.00	–	–
CC1(c2cc(-c3cccnc3F)ccc2F)Cc2cncn2C(N)=N1 (stereo not shown) [Compound I-7]	–	≥ 6.00	≥ 6.00	–	1.7
